Data published in BindingDB's records for doi:10.1016/j.bmc.2008.04.010 (Astellas Pharma, 2008).

target: T1, Glycogen phosphorylase, liver form (Homo sapiens, UniProt P06737); test: Glycogen Phosphorylase Activity Assay; conditions: pH 6.8; 22 °C
T1 sequence (P06737 whole entry): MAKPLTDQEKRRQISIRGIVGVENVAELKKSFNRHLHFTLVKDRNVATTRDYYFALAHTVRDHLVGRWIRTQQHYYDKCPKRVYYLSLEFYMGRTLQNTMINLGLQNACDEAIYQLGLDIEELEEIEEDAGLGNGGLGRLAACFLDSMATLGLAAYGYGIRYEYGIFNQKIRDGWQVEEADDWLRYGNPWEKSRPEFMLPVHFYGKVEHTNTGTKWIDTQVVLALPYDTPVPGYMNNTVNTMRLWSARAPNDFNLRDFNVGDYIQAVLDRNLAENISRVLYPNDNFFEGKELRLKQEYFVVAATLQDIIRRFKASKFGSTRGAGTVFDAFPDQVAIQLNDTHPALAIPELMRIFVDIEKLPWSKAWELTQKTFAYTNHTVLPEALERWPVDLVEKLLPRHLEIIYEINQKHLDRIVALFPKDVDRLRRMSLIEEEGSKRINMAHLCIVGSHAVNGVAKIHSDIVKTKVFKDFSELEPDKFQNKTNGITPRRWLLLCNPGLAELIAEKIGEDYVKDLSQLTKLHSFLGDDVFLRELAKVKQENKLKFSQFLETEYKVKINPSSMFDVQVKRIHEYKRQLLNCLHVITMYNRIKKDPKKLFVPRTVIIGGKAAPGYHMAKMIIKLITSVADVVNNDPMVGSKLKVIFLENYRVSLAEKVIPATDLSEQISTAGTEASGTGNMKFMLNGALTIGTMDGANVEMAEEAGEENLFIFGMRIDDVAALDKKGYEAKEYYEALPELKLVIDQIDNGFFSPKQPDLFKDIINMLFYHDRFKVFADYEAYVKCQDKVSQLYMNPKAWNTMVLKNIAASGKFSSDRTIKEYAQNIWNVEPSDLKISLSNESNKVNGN
Description: The activity of recombinant human liver GPa in the forward direction was measured by monitoring the production of NADPH. Enzyme activity was assayed at pH 6.8 in phosphate buffer containing beta-NADP, alpha -glucose 1,6-bisphosphate, glucose-6-phophate dehydrogenase, phosphoglucomutase, glycogen, and glucose. […] The reaction was started by adding hLGPa solution (beta-glycerophosphate and cystein, pH 6.8). The reaction took place at room temperature, and the conversion of oxidized beta-NADP to reduced beta-NADPH was measured at 340 nm for 2 h. The hLGPa inhibition IC50 values were calculated using the logistic regression method and SAS software.

IC50 | SMILES
420 nM | O=C(Nc1ccc(C(O)CO)cc1F)c1cc2cc(Cl)ccc2[nH]1 (stereo not drawn) [5-chloroindolecarboxamide, 9b]
1100 nM | O=C(Nc1ccc(C(O)CO)cc1Cl)c1cc2cc(Cl)ccc2[nH]1 (stereo not drawn) [5-chloroindolecarboxamide, 9c]
340 nM | O=C(Nc1ccc(C(O)CO)c(F)c1)c1cc2cc(Cl)ccc2[nH]1 (stereo not drawn) [5-chloroindolecarboxamide, 9g]
